Where two headings read alike, the source gives them in different places. Square brackets hold non-standard residues; d marks the D form. Side chains are listed from the residue outwards. Peptide text beside a SMILES is read from it. * marks the point of attachment. X12 = CCOc1ccc(C[C@@H](NC(=O)[C@H](N)Cc2ccccc2)C(=O)*)cc1; Piperidinyl(4-NH2,4-CONH2) = NC(=O)C1(N)CCN(*)CC1; X10 = NCCCC[C@@H](NC(=O)C1(N)CCN(*)CC1)C(=O)O; X1 = NCCCC[C@@H](NC(=O)C1(N)CCN(*)CC1)C(N)=O; X4 = NCCCC[C@H](NC(=O)C1(N)CCN(*)CC1)C(=O)O; X6 = NCCCC[C@H](NC(=O)C1(N)CCN(*)CC1)C(N)=O; Api = NC1(C(=O)O)CCNCC1; iPr = CC(C)*
Target: T1, human κ opioid receptor (OPRK1) (Homo sapiens, UniProt P41145)
T1 construct: expressed in transfected cells; host or cells: CHO-K1
Assay: Determination of activities of κ receptor agonists: inhibition of forskolin-stimulated cAMP release (HTRF) in stably transfected CHO-K1 cells
Assay type: cell-based
Details: for Relative Activity %: relative to Difelikefalin = 100.0
From the text: Gi-coupled human κ opioid receptor (OPRK1), upon stimulation with its specific opioid receptor agonists, can inhibit the intracellular adenylate cyclase pathway, and decrease cAMP levels. Forskolin can stimulate cAMP release in cell lines highly expressing opioid receptors. By stimulating cell lines stably transfected with opioid receptors, the inhibitory effect of a test compound on forskolin-stimulated cAMP release can be measured to determine the activity of the compound. The relative light units (RLU) from the cells after stimulation with different doses were measured via the homogeneous time-resolved fluorescence technique (HTRF), and the EC50 value of the agonist was subsequently calculated. This activity determination method is a currently commonly used method for determining the activities of opioid receptor agonists at home and abroad.
A CHO-K1 cell line stably expressing opioid receptors was used. Stably transfected cells were stimulated with various concentrations of agonists (under the stimulation of a certain concentration of forskolin). The relative light units from the cells after stimulation with different doses were measured, from which the EC50 value of the agonist was subsequently obtained by calculation.

T1 sequence (P41145 whole entry): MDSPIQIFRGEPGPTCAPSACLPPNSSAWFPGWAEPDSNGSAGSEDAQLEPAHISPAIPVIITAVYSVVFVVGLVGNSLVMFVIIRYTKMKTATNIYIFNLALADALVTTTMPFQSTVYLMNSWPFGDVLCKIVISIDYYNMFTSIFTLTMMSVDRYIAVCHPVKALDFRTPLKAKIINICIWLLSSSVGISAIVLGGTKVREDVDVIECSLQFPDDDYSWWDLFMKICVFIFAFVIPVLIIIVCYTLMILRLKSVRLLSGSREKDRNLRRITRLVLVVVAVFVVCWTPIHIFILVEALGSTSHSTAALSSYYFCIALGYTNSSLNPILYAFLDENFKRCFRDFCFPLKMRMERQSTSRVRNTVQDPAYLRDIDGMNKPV

SMILES	EC50	Relative Activity %	EC50 (CHO-K1 cell line stably expressing opioid receptors, forskolin-stimulated cAMP, HTRF, read-out: EC50)
CCOc1ccc(C[C@@H](NC(=O)[C@H](N)Cc2ccccc2)C(=O)N[C@H](CC(C)C)C(=O)N[C@H](CCCCN)C(=O)N2CCC(N)(C(=O)N[C@@H](CCCCN)C(=O)N[C@@H](CCCCN)C(=O)N[C@@H](CCCCN)C(=O)N[C@@H](CCCCN)C(=O)N[C@@H](CCCCN)C(=O)N[C@@H](CCCCN)C(=O)O)CC2)cc1 [Compound 14, D-Phe-D-Tyr(Et)-D-Leu-D-Lys-4-aminopiperidine-4-carboxamide-Lys-Lys-Lys-Lys-Lys-Lys-OH] (H-[Api]([dK-dL-X12])KKKKKK-OH; N-terminus assumed)	0.0655 nM	927.0%	
CCc1ccc(C[C@@H](NC(=O)[C@H](N)Cc2ccccc2)C(=O)N[C@H](CC(C)C)C(=O)N[C@H](CCCCN)C(=O)N2CCC(N)(C(=O)N[C@H](CCCCN)C(=O)O)CC2)cc1 [Compound 134, D-Phe-D-Phe(4-Et)-D-Leu-D-Lys-4-aminopiperidine-4-carboxamide-D-Lys-OH]	0.133 nM	457.6%	
CC(C)C[C@@H](NC(=O)[C@@H](Cc1ccc(Cl)cc1)NC(=O)[C@H](N)Cc1ccccc1)C(=O)N[C@H](CCCCN)C(=O)N1CCC(N)(C(=O)O)CC1 [Compound 110, D-Phe-D-Phe(4-C1)-D-Leu-D-Lys-4-aminopiperidine-4-carboxamide-OH]	0.149 nM	408.6%	
CC(C)C[C@@H](NC(=O)[C@@H](Cc1ccc(Br)cc1)NC(=O)[C@H](N)Cc1ccccc1)C(=O)N[C@H](CCCCN)C(=O)N1CCC(N)(C(=O)O)CC1 [Compound 116, D-Phe-D-Phe(4-Br)-D-Leu-D-Lys-4-aminopiperidine-4-carboxamide-OH]	0.136 nM	448.1%	
CC(C)C[C@@H](NC(=O)[C@@H](Cc1ccc(Cl)cc1)NC(=O)[C@H](N)Cc1ccccc1)C(=O)N[C@H](CCCCN)C(=O)N1CCC(N)(C(=O)N[C@@H](CCCCN)C(N)=O)CC1 [Compound 111, D-Phe-D-Phe(4-C1)-D-Leu-D-Lys-4-aminopiperidine-4-carboxamide-Lys-NH2]	0.0521 nM	1165.5%	
CCOc1ccc(C[C@@H](NC(=O)[C@H](N)Cc2ccccc2)C(=O)N[C@H](CC(C)C)C(=O)N[C@H](CCCCN)C(=O)N2CCC(N)(C(=O)N[C@H](CCCCN)C(=O)N[C@H](CCCCN)C(=O)N[C@H](CCCCN)C(=O)N[C@H](CCCCN)C(=O)N[C@H](CCCCN)C(=O)N[C@H](CCCCN)C(N)=O)CC2)cc1 [Compound 25, D-Phe-D-Tyr(Et)-D-Leu-D-Lys-4-aminopiperidine-4-carboxamide-D-Lys-D-Lys-D-Lys-D-Lys -D-Lys-D-Lys-NH2] (H-[Api]([dK-dL-X12])[dK][dK][dK][dK][dK][dK]-NH2; N-terminus assumed)	0.0684 nM	887.7%	
CC(C)C[C@@H](NC(=O)[C@@H](Cc1ccc(OC(C)C)cc1)NC(=O)[C@H](N)Cc1ccccc1)C(=O)N[C@H](CCCCN)C(=O)N1CCC(N)(C(=O)N[C@H](CCCCN)C(N)=O)CC1 [Compound 101, D-Phe-D-Tyr(Ipr)-D-Leu-D-Lys-4-aminopiperidine-4-carboxamide-D-Lys-NH2] (H-[dF][dY](iPr)[dL][dK]-X1; N-terminus assumed)	0.0728 nM	834.1%	
CCOc1ccc(C[C@@H](NC(=O)[C@H](N)Cc2ccccc2)C(=O)N[C@H](CC(C)C)C(=O)N[C@H](CCCCN)C(=O)N2CCC(N)(C(=O)N[C@H](CCCCN)C(=O)O)CC2)cc1 [Compound 16, D-Phe-D-Tyr(Et)-D-Leu-D-Lys-4-aminopiperidine-4-carboxamide-D-Lys-OH] (H-[dF][dY](Et)[dL][dK]-X10; N-terminus assumed)	0.0431 nM	1408.8%	
CC(C)C[C@@H](NC(=O)[C@@H](Cc1ccc(C(C)C)cc1)NC(=O)[C@H](N)Cc1ccccc1)C(=O)N[C@H](CCCCN)C(=O)N1CCC(N)(C(=O)N[C@H](CCCCN)C(N)=O)CC1 [Compound 137, D-Phe-D-Phe(4-Ipr)-D-Leu-D-Lys-4-aminopiperidine-4-carboxamide-D-Lys-NH2]	0.143 nM	423.1%	
CC(C)C[C@@H](NC(=O)[C@@H](Cc1ccc(Br)cc1)NC(=O)[C@H](N)Cc1ccccc1)C(=O)N[C@H](CCCCN)C(=O)N1CCC(N)(C(=O)N[C@@H](CCCCN)C(=O)O)CC1 [Compound 118, D-Phe-D-Phe(4-Br)-D-Leu-D-Lys-4-aminopiperidine-4-carboxamide-Lys-OH]	0.0638 nM	951.7%	
CCOc1ccc(C[C@@H](NC(=O)[C@H](N)Cc2ccccc2)C(=O)N[C@H](CC(C)C)C(=O)N[C@H](CCCCN)C(=O)N2CCC(N)(C(=O)N[C@@H](CCCCN)C(=O)N[C@@H](CCCCN)C(=O)N[C@@H](CCCCN)C(=O)N[C@@H](CCCCN)C(=O)N[C@@H](CCCCN)C(N)=O)CC2)cc1 [Compound 11, D-Phe-D-Tyr(Et)-D-Leu-D-Lys-4-aminopiperidine-4-carboxamide-Lys-Lys-Lys-Lys-Lys-NH2] (H-[Api]([dK-dL-X12])KKKKK-NH2; N-terminus assumed)	0.0534 nM	1137.1%	
Cc1ccc(C[C@@H](NC(=O)[C@H](N)Cc2ccccc2)C(=O)N[C@H](CC(C)C)C(=O)N[C@H](CCCCN)C(=O)N2CCC(N)(C(=O)N[C@@H](CCCCN)C(N)=O)CC2)cc1 [Compound 127, D-Phe-D-Phe(4-Me)-D-Leu-D-Lys-4-aminopiperidine-4-carboxamide-Lys-NH2]	0.157 nM	385.8%	
Cc1ccc(C[C@@H](NC(=O)[C@H](N)Cc2ccccc2)C(=O)N[C@H](CC(C)C)C(=O)N[C@H](CCCCN)C(=O)N2CCC(N)(C(=O)N[C@@H](CCCCN)C(=O)O)CC2)cc1 [Compound 128, D-Phe-D-Phe(4-Me)-D-Leu-D-Lys-4-aminopiperidine-4-carboxamide-Lys-OH]	0.16 nM	380.2%	
CC(C)C[C@@H](NC(=O)[C@@H](Cc1ccccc1)NC(=O)[C@H](N)Cc1ccccc1)C(=O)N[C@H](CCCCN)C(=O)N1CCC(N)(C(=O)O)CC1 [Difelikefalin, D-Phe-D-Phe-D-Leu-D-Lys-4-caminopiperidine-4-arboxylicacid-OH, reference compound]			0.607 nM
CCOc1ccc(C[C@@H](NC(=O)[C@H](N)Cc2ccccc2)C(=O)N[C@H](CC(C)C)C(=O)N[C@H](CCCCN)C(=O)N2CCC(N)(C(=O)NCC(=O)NCC(=O)NCC(=O)NCC(=O)NCC(=O)N[C@H](CCCCN)C(=O)O)CC2)cc1 [Compound 66, D-Phe-D-Tyr(Et)-D-Leu-D-Lys-4-aminopiperidine-4-carboxamide-Gly-Gly-Gly-Gly-Gly-D-Lys-OH] (H-[Api]([dK-dL-X12])GGGGG[dK]-OH; N-terminus assumed)	0.0895 nM	678.4%	
CCOc1ccc(C[C@@H](NC(=O)[C@H](N)Cc2ccccc2)C(=O)N[C@H](CC(C)C)C(=O)N[C@H](CCCCN)C(=O)N2CCC(N)(C(=O)N[C@@H](CCCCN)C(=O)O)CC2)cc1 [Compound 4, D-Phe-D-Tyr(Et)-D-Leu-D-Lys-4-aminopiperidine-4-carboxamide-Lys-OH] (H-[dF][dY](Et)[dL][dK]-X4; N-terminus assumed)	0.0399 nM	1521.8%	
CCOc1ccc(C[C@@H](NC(=O)[C@H](N)Cc2ccccc2)C(=O)N[C@H](CC(C)C)C(=O)N[C@H](CCCCN)C(=O)N2CCC(N)(C(N)=O)CC2)cc1 [Compound 1, D-Phe-D-Tyr(Et)-D-Leu-D-Lys-4-aminopiperidine-4-carboxylicacid-NH2] (H-[dF][dY](Et)[dL][dK]-{Piperidinyl(4-NH2,4-CONH2)}; N-terminus assumed)	0.116 nM	524.8%	
CCOc1ccc(C[C@@H](NC(=O)[C@H](N)Cc2ccccc2)C(=O)N[C@H](CC(C)C)C(=O)N[C@H](CCCCN)C(=O)N2CCC(N)(C(=O)NCC(=O)NCC(=O)NCC(=O)N[C@@H](CCCCN)C(=O)O)CC2)cc1 [Compound 56, D-Phe-D-Tyr(Et)-D-Leu-D-Lys-4-aminopiperidine-4-carboxamide-Gly-Gly-Gly-Lys-OH] (H-[Api]([dK-dL-X12])GGGK-OH; N-terminus assumed)	0.0506 nM	1200.0%	
CC(C)C[C@@H](NC(=O)[C@@H](Cc1ccc(F)cc1)NC(=O)[C@H](N)Cc1ccccc1)C(=O)N[C@H](CCCCN)C(=O)N1CCC(N)(C(=O)N[C@@H](CCCCN)C(N)=O)CC1 [Compound 105, D-Phe-D-Phe(4-F)-D-Leu-D-Lys-4-aminopiperidine-4-carboxamide-Lys-NH2]	0.0796 nM	762.8%	
COc1ccc(C[C@@H](NC(=O)[C@H](N)Cc2ccccc2)C(=O)N[C@H](CC(C)C)C(=O)N[C@H](CCCCN)C(=O)N2CCC(N)(C(=O)N[C@@H](CCCCN)C(N)=O)CC2)cc1 [Compound 87, D-Phe-D-Tyr(Me)-D-Leu-D-Lys-4-aminopiperidine-4-carboxamide-Lys-NH2] (H-[dF][dY](Me)[dL][dK]-X6; N-terminus assumed)	0.0422 nM	1438.9%	
CCOc1ccc(C[C@@H](NC(=O)[C@H](N)Cc2ccccc2)C(=O)N[C@H](CC(C)C)C(=O)N[C@H](CCCCN)C(=O)N2CCC(N)(C(=O)NCC(=O)NCC(=O)NCC(=O)NCC(=O)NCC(=O)N[C@H](CCCCN)C(N)=O)CC2)cc1 [Compound 65, D-Phe-D-Tyr(Et)-D-Leu-D-Lys-4-aminopiperidine-4-carboxamide-Gly-Gly-Gly-Gly-Gly-D-Lys-NH2] (H-[Api]([dK-dL-X12])GGGGG[dK]-NH2; N-terminus assumed)	0.0884 nM	686.9%	

From US20260274891A1, “¿ OPIOID RECEPTOR AGONIST AND USE THEREOF” (CHENGDU AODA BIOTECHNOLOGY CO., LTD., priority 2023, published 2026)
